Among the data in ChEMBL document CHEMBL1131109, “Modeling RNA-ligand interactions: the Rev-binding element RNA-aminoglycoside complex” (1998) are MIC values, retold here.

≈ marks a conversion by molar mass, not a printed value.

The test system of test [1] is Nucleic Acid. Kind of test: Compound was tested for the inhibition of Rev-RBE RNA complex formation. Format: functional.
Test [2] deals with Human rhinovirus sp. In words: Compound was tested for minimum inhibitory concentration against human rhinovirus 14 (HRV14). Format: functional.

Regarding `NC[C@H]1O[C@H](O[C@H]2[C@H](O)[C@@H](O[C@H]3O[C@H](CO)[C@@H](O)[C@H](N)[C@H]3O)[C@H](N)C[C@@H]2N)[C@H](N)[C@@H](O)[C@@H]1O`, the MIC in test [1] is 100 µM (≈ 48.4 µg/mL).
Regarding `Cc1cc(CCCCCCCOc2ccc(C3=NC[C@@H](C)O3)cc2Cl)on1`, the MIC in test [2] was 0.2 µM (≈ 0.0782 µg/mL).
In the case of `NC[C@H]1O[C@H](O[C@H]2[C@H](O)[C@@H](O)[C@H](N)C[C@@H]2N)[C@H](N)[C@@H](O)[C@@H]1O`, the MIC in test [1] was > 100 µM.
Compound `CNC1C(O)C(OC2C(N)CC(N)C(OC3OC(CN)CCC3N)C2O)OCC1(C)O` (stereo not drawn) yielded an MIC in test [1] of 100 µM (≈ 45 µg/mL).
For `CC[C@@H]1CN=C(c2ccc(OCCCCCCCc3cc(C)no3)cc2)O1`, the MIC in test [2] was 0.02 µM (≈ 0.00741 µg/mL).
The same measure, in the same setting: under `Cc1cc(CCCCCOc2ccc(C3=NCCO3)cc2Cl)on1` stands 2.4 µM (≈ 0.837 µg/mL); under `Cc1cc(CCCCCCCOc2ccc(C3=NC[C@@H](C)O3)cc2)on1`, 0.03 µM (≈ 0.0107 µg/mL).
Regarding `NC[C@@H]1O[C@@H](O[C@H]2[C@H](O)[C@@H](O[C@H]3O[C@H](CO)[C@@H](O)[C@H](N)[C@H]3O)[C@H](N)C[C@@H]2N)[C@@H](O)[C@H](O)[C@H]1O`, in test [1], the MIC is > 100 µM.
In test [1], `NC[C@H]1O[C@H](O[C@H]2[C@H](O)[C@@H](O[C@H]3O[C@H](CO)[C@@H](O)[C@H](N)[C@H]3O)[C@H](N)C[C@@H]2N)[C@H](N)C[C@@H]1O` displayed an MIC of 10 µM (≈ 4.68 µg/mL).
Still for that read-out and setting: with `NC[C@@H]1O[C@H](O[C@H]2[C@@H](O)[C@H](O[C@@H]3[C@@H](O)[C@H](N)C[C@H](N)[C@H]3O[C@H]3O[C@H](CN)[C@@H](O)[C@H](O)[C@H]3N)O[C@@H]2CO)[C@H](N)[C@@H](O)[C@@H]1O` the figure was 1 µM (≈ 0.615 µg/mL).
Take `Cc1cc(CCCCCOc2ccc(C3=NC[C@@H](C)O3)cc2)on1`: the MIC in test [2] was 0.6 µM (≈ 0.197 µg/mL).
`NC[C@H]1O[C@H](O[C@H]2[C@H](O[C@@H]3O[C@H](CO)[C@@H](O)[C@H]3O)[C@@H](O)[C@H](N)C[C@@H]2N)[C@H](N)[C@@H](O)[C@@H]1O` showed an MIC in test [1] of 100 µM (≈ 45.4 µg/mL).
As for `Cc1cc(CCCCCOc2ccc(C3=NCCO3)cc2)on1`, the MIC in test [2] is 0.5 µM (≈ 0.157 µg/mL).
`NC[C@@H]1O[C@H](O[C@H]2[C@@H](O)[C@H](O[C@@H]3[C@@H](O)[C@H](N)C[C@H](N)[C@H]3O[C@H]3O[C@H](CO)[C@@H](O)[C@H](O)[C@H]3N)O[C@@H]2CO)[C@H](N)[C@@H](O)[C@@H]1O`: the MIC in test [1] is > 100 µM.
As for `Cc1cc(CCCCCCCOc2ccc(C3=NC[C@H](C)O3)cc2)on1`, in test [2], the MIC is 0.4 µM (≈ 0.143 µg/mL).
Compound `NC[C@@H]1O[C@H](O[C@H]2[C@@H](O)[C@H](O[C@@H]3[C@@H](O)[C@H](N)C[C@H](N)[C@H]3O[C@H]3O[C@H](CO)[C@@H](O)C[C@H]3N)O[C@@H]2CO)[C@H](N)[C@@H](O)[C@@H]1O[C@H]1O[C@H](CO)[C@@H](O)[C@H](O)[C@@H]1O` showed an MIC in test [1] of 10 µM (≈ 7.62 µg/mL).
Take `CN[C@@H]1[C@@H](O)[C@@H](O[C@@H]2[C@@H](O)[C@H](O[C@H]3OC(CN)=CC[C@H]3N)[C@@H](N)C[C@H]2N)OC[C@]1(C)O`: in test [1], the MIC was > 100 µM.
Turning to `Cc1cc(CCCCCCCOc2ccc(C3=NCCO3)cc2)on1` [DISOXARIL], the MIC in test [2] is 0.6 µM (≈ 0.205 µg/mL).
